How the values were obtained:
[1] = target: T1, Alpha-1B adrenergic receptor (Rattus norvegicus, UniProt P15823); experiment: DRUGMATRIX: Alpha-1B adrenergic receptor radioligand binding (ligand: prazosin); type: cell membranes, Wistar, Liver, Membrane; conditions: Not Active = under 50% inhibition at 10 µM
T1 sequence (P15823 whole entry): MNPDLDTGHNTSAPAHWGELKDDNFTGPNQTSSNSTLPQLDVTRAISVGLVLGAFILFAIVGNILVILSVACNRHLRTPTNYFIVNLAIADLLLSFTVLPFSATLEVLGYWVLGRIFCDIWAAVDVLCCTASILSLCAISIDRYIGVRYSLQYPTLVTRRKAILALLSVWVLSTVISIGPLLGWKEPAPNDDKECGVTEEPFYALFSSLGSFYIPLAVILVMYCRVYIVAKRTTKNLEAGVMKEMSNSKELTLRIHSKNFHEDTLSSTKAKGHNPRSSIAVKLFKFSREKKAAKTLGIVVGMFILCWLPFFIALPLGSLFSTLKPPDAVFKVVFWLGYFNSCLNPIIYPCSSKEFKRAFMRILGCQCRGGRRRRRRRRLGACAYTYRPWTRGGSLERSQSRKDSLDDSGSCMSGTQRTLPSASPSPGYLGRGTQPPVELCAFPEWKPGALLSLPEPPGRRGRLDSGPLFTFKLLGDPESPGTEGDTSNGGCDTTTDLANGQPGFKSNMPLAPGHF

Cytochrome P450 2E1 = Cytochrome P450 2E1 (Homo sapiens, UniProt P05181); conditions: bti-tn-5b1-4; also: in other assays of this panel Not Active means under 50% inhibition at 10 µM
Chain of Cytochrome P450 2E1 (P05181 whole entry): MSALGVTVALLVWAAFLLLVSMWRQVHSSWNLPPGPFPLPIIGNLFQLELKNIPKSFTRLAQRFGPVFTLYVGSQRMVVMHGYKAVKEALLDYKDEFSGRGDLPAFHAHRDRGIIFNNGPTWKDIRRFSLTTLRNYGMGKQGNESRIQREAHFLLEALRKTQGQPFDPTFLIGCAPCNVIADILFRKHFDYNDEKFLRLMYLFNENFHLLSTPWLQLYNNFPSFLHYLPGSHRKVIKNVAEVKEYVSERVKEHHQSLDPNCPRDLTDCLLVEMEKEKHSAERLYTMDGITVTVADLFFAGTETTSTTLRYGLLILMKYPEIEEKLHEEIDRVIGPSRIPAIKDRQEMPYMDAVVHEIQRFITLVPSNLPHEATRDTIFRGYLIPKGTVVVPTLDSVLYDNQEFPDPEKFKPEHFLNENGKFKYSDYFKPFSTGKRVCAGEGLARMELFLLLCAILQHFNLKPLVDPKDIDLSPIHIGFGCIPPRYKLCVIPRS

[2] = DRUGMATRIX: Phosphodiesterase PDE3 enzyme inhibition (substrate: [3H]cAMP + cAMP); type: tissue-based, Homo sapiens; conditions: platelet; Not Active = under 50% inhibition at 10 µM
[3] = target: T2, 5-hydroxytryptamine receptor 2C (Homo sapiens, UniProt P28335); experiment: DRUGMATRIX: Serotonin (5-Hydroxytryptamine) 5-HT2C radioligand binding (ligand: [3H] Mesulergine); type: cell membranes, CHO-K1, Membrane; conditions: Not Active = under 50% inhibition at 10 µM
T2 sequence (P28335 whole entry): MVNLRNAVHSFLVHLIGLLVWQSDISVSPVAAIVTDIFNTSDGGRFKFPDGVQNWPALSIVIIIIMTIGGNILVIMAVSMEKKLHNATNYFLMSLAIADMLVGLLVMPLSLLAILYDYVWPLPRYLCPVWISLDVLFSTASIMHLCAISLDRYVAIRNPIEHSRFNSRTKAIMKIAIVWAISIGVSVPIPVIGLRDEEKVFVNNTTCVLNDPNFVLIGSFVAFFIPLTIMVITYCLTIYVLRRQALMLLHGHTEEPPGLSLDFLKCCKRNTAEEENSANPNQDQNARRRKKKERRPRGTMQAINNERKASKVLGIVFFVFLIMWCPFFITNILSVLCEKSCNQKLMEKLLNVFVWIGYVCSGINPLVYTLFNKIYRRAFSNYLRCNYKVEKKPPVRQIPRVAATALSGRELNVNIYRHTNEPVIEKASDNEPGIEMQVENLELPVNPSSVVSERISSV

Endothelin-1 receptor = target: T3, Endothelin-1 receptor (Homo sapiens, UniProt P25101); type: cell membranes, Membrane; conditions: cho-k1; also: in other assays of this panel Not Active means under 50% inhibition at 10 µM
T3 sequence (P25101 whole entry): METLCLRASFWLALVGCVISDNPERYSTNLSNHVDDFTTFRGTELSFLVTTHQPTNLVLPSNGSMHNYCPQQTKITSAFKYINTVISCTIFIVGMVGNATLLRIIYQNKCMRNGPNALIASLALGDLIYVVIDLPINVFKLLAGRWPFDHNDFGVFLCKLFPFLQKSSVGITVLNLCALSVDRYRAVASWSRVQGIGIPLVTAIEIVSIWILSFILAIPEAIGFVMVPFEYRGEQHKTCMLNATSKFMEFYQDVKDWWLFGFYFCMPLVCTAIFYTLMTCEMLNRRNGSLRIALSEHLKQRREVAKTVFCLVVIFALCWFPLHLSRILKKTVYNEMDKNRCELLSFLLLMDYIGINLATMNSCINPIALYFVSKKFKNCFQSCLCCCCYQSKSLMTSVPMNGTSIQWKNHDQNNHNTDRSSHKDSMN

[4] = target: T4, Vasoactive intestinal polypeptide receptor 1 (Homo sapiens, UniProt P32241); type: cell membranes, Membrane; conditions: ht-29; also: in other assays of this panel Not Active means under 50% inhibition at 10 µM
T4 sequence (P32241 whole entry): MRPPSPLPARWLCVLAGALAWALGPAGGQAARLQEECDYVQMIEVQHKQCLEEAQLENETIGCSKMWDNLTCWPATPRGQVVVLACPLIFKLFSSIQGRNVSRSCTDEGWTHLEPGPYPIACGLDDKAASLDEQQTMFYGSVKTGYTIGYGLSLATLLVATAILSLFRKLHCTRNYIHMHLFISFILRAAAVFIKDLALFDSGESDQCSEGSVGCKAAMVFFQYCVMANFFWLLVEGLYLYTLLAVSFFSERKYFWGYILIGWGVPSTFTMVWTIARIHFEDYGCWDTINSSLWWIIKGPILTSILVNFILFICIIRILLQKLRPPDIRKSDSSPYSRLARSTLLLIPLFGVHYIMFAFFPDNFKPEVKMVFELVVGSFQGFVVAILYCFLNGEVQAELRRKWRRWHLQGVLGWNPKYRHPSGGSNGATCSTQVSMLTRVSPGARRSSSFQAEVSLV

Row | Compound | IC50 [1] | IC50 (Cytochrome P450 2E1) | Ki (Cytochrome P450 2E1) | IC50 [2] | Ki [2] | IC50 ([3]; cho-k1) | IC50 (Endothelin-1 receptor) | IC50 [4] | IC50 ([3]; read-out: IC50) [nM] | Ki ([3]; read-out: Ki) [nM] | Ki [1] | Ki ([3]; cho-k1) | Ki (Endothelin-1 receptor) | Ki [4]
1 | O=C1c2ccccc2C(=O)C1c1ccccc1 [PHENINDIONE] | Not Active | Not Active | Not Active | Not Active | Not Active | Not Active | Not Active | Not Active | – | – | – | – | – | –
2 | Clc1cc(Cl)c(OCC#CI)cc1Cl [HALOPROGIN] | Not Active | Not Active | Not Active | Not Active | Not Active | – | Not Active | Not Active | 2600 | 1360 | – | – | – | –
3 | C[C@H]1C[C@H]2[C@@H]3CCC4=CC(=O)C=C[C@]4(C)[C@@]3(F)[C@@H](O)C[C@]2(C)[C@@]1(O)C(=O)CO [BETAMETHASONE] | Not Active | Not Active | Not Active | Not Active | Not Active | Not Active | Not Active | Not Active | – | – | – | – | – | –
4 | COc1ccc(Cl)cc1C(=O)NCCc1ccc(S(=O)(=O)NC(=O)NC2CCCCC2)cc1 [GLYBURIDE] | Not Active | Not Active | Not Active | Not Active | Not Active | Not Active | Not Active | Not Active | – | – | – | – | – | –
5 | CC1(COc2ccc(CC3SC(=O)NC3=O)cc2)CCCCC1 (stereo unspecified) [CIGLITAZONE] | Not Active | Not Active | Not Active | Not Active | Not Active | Not Active | Not Active | Not Active | – | – | – | – | – | –
6 | Cc1ccnc2c1NC(=O)c1cccnc1N2C1CC1 [NEVIRAPINE] | Not Active | Not Active | Not Active | Not Active | Not Active | Not Active | Not Active | Not Active | – | – | – | – | – | –
7 | CNC[C@H](O)c1ccc(O)c(O)c1 [EPINEPHRINE] | – | Not Active | Not Active | Not Active | Not Active | Not Active | Not Active | Not Active | – | – | – | – | – | –
8 | CN(Cc1cc(Br)cc(Br)c1N)C1CCCCC1 [BROMHEXINE] | Not Active | Not Active | Not Active | Not Active | Not Active | Not Active | Not Active | Not Active | – | – | – | – | – | –
9 | COPPER(II) OXIDE | Not Active | Not Active | Not Active | Not Active | Not Active | Not Active | Not Active | Not Active | – | – | Not Active | Not Active | Not Active | Not Active
10 | CCN1C[C@]2(COC)[C@H](O)C[C@H](OC)[C@@]34[C@@H]5C[C@@]6(O)[C@H](OC(=O)c7ccccc7)[C@@H]5[C@@](OC(C)=O)([C@@H]([C@H](OC)[C@H]23)[C@@H]14)[C@@H](O)[C@@H]6OC [ACONITINE] | Not Active | Not Active | Not Active | Not Active | Not Active | Not Active | Not Active | Not Active | – | – | – | – | – | –
11 | COc1ccc(C[C@H](N)C(=O)N[C@H]2[C@@H](O)[C@H](n3cnc4c(N(C)C)ncnc43)O[C@@H]2CO)cc1 [PUROMYCIN] | Not Active | Not Active | Not Active | Not Active | Not Active | Not Active | Not Active | Not Active | – | – | – | – | – | –
12 | OC[C@H]1OC2C3[C@@H](CO)OC(O[C@H]4[C@H](O)[C@@H](O)[C@@H](O[C@H]5[C@H](O)[C@@H](O)[C@@H](O[C@H]6[C@H](O)[C@@H](O)[C@@H](O[C@H]7[C@H](O)[C@@H](O)[C@@H](O[C@H]8[C@H](O)[C@@H](O)[C@@H](O[C@H]9[C@H](O)[C@@H](O)C(OC1[C@H](O)[C@H]2O)O[C@@H]9CO)O[C@@H]8CO)O[C@@H]7CO)O[C@@H]6CO)O[C@@H]5CO)O[C@@H]4CO)[C@H](O)[C@H]3O | Not Active | Not Active | Not Active | Not Active | Not Active | Not Active | Not Active | Not Active | – | – | – | – | – | –
13 | NC(N)=Nc1nc(CSCCC(N)=NS(N)(=O)=O)cs1 [FAMOTIDINE] | Not Active | Not Active | Not Active | Not Active | Not Active | Not Active | Not Active | Not Active | – | – | – | – | – | –
14 | C[N+](C)(C)CCOP(=O)([O-])OC[C@H](O)CO | Not Active | Not Active | Not Active | Not Active | Not Active | Not Active | Not Active | Not Active | – | – | – | – | – | –
15 | COc1cc(/C=C/C(=O)O)ccc1O [FERULATE] | Not Active | Not Active | Not Active | Not Active | Not Active | Not Active | Not Active | Not Active | – | – | – | – | – | –
16 | NC(=O)NC(=O)Cc1ccccc1 [PHENACEMIDE] | Not Active | Not Active | Not Active | Not Active | Not Active | Not Active | Not Active | Not Active | – | – | – | – | – | –
17 | NC(=O)CN1CCCC1=O | Not Active | Not Active | Not Active | Not Active | Not Active | Not Active | Not Active | Not Active | – | – | – | – | – | –
18 | CC(C)Cn1cnc2c(N)nc3ccccc3c21 [IMIQUIMOD] | Not Active | Not Active | Not Active | Not Active | Not Active | Not Active | Not Active | Not Active | – | – | – | – | – | –
19 | CCO [ALCOHOL] | Not Active | Not Active | Not Active | Not Active | Not Active | Not Active | Not Active | Not Active | – | – | – | – | – | –
20 | C[C@H](C(=O)O)c1ccc2oc(-c3ccc(F)cc3)nc2c1 [FLUNOXAPROFEN] | Not Active | Not Active | Not Active | Not Active | Not Active | Not Active | Not Active | Not Active | – | – | – | – | – | –
21 | COc1ccccc1OCCNCC(O)COc1cccc2[nH]c3ccccc3c12 (stereo unspecified) [CARVEDILOL] | – | Not Active | Not Active | Not Active | Not Active | – | Not Active | Not Active | 115 | 60 | – | – | – | –
22 | O=C(O)CNCP(=O)(O)O [GLYPHOSATE] | Not Active | – | – | Not Active | Not Active | Not Active | Not Active | Not Active | – | – | – | – | – | –
23 | Cc1cc(C(C)(C)C)c(O)c(C)c1CC1=NCCN1 [OXYMETAZOLINE] | – | Not Active | Not Active | Not Active | Not Active | – | Not Active | Not Active | 578 | 303 | – | – | – | –

From ChEMBL document CHEMBL1909046, “DrugMatrix in vitro pharmacology data”
